tested on: MOLM-13 cells; experiment: Caspase cleavage assay (Caspase3, 7 activation); assay type: cell-based; conditions: Homo sapiens, 16 h treatment, caspase substrate Z-DEVD-R110, read-out: c* Concentration at which 50% of the maximum signal was achieved (caspase activation)
Experimental: Caspase3, 7 Activation. MOLM-13 cells (30,000 cells/well) were plated in black 96-well plates (Corning Cat. #3603) in 40 μL of RPMI media, and left in an incubator (37° C., 5% CO2) for up to 24 h. Cells were treated for 16 h with compounds or DMSO (control) at desired concentrations in 50 μL of media. Drugs were added in triplicate wells. Following exposure of cells to Hsp70 inhibitors, 50 μL of buffer containing 10 mM HEPES (pH 7.5), 2 mM EDTA, 0.1% CHAPS and the caspase substrate Z-DEVD-R110 at 25 μM was added to each well. Plates were incubated until the signal stabilized and then the fluorescence signal of each well was measured in an Analyst GT microplate reader. The percentage increase in apoptotic cells was calculated by comparison of the fluorescence reading obtained from treated versus control cells.

Row | Compound | EC50 [nM]
1 | COc1cccc(COc2nc(N3CCOCC3)ncc2Sc2ccc(C(N)=O)cc2)c1 [190a, 4-((4-((3-Methoxybenzyl)oxy)-2-morpholinopyrimidin-5-yl)thio)benzamide] | 200 to 400
2 | COc1cccc(COc2nc(N3CCN(C(C)C)CC3)ncc2Sc2ccc(C(N)=O)cc2)c1 [190b, 4-((2-(4-Isopropylpiperazin-1-yl)-4-((3-methoxybenzyl)oxy)pyrimidin-5-yl)thio)benzamide] | 200 to 400
3 | COc1cccc(COc2nc(N(C)CCN(C)C)ncc2Sc2ccc(C(N)=O)cc2)c1 [190g, 4-((2-((2-(Dimethylamino)ethyl)(methyl)amino)-4-((3-methoxybenzyl)oxy)pyrimidin-5-yl)thio)benzamide] | ≥ 1200
4 | C#CCCCCN1CCN(c2ncc(Sc3ccc(C(N)=O)cc3)c(OCc3cccc(OC)c3)n2)CC1 [190j, 4-((2-(4-(Hex-5-yn-1-yl)piperazin-1-yl)-4-((3-methoxybenzyl)oxy)pyrimidin-5-yl)thio)benzamide] | < 200
5 | COc1cccc(COc2nc(N3CC(N(C)C)C3)ncc2Sc2ccc(C(N)=O)cc2)c1 [190m, 4-((2-(3-(Dimethylamino)azetidin-1-yl)-4-((3-methoxybenzyl)oxy)pyrimidin-5-yl)thio)benzamide] | < 200
6 | C#CC(C)N1CCN(c2ncc(Sc3ccc(C(N)=O)cc3)c(OCc3cccc(OC)c3)n2)CC1 (stereo not drawn) [190n, 4-((2-(4-(But-3-yn-2-yl)piperazin-1-yl)-4-((3-methoxybenzyl)oxy)pyrimidin-5-yl)thio)benzamide] | 200 to 400
7 | COc1cccc(COc2nc(N3CCN(C)C(=O)C3)ncc2Sc2ccc(C(N)=O)cc2)c1 [190t, 4-((4-((3-Methoxybenzyl)oxy)-2-(4-methyl-3-oxopiperazin-1-yl)pyrimidin-5-yl)thio) benzamide] | < 200
8 | COc1cccc(COc2nc(N3CCN(Cc4ccco4)CC3)ncc2Sc2ccc(C(N)=O)cc2)c1 [190u, 4-((2-(4-(Furan-2-ylmethyl)piperazin-1-yl)-4-((3-methoxybenzyl)oxy)pyrimidin-5-yl)thio)benzamide] | < 200
9 | CN1CCN(c2ncc(Sc3ccc(N)cc3)c(OCc3ccccc3)n2)CC1 [compound 10, 4-(4-(Benzyloxy)-2-(4-methylpiperazin-1-yl)pyrimidin-5-ylthio)aniline] | 400 to 1000
10 | CN1CCN(c2ncc(Sc3cccnc3N)c(OCc3ccccc3)n2)CC1 [compound 13, 3-((4-(Benzyloxy)-2-(4-methylpiperazin-1-yl)pyrimidin-5-yl)thio)pyridin-2-amine] | 400 to 1000
11 | CN1CCN(c2ncc(Sc3ccc(O)cc3)c(OCc3ccccc3)n2)CC1 [compound 37, 4-((4-(Benzyloxy)-2-(4-methylpiperazin-1-yl)pyrimidin-5-yl)thio)phenol] | 400 to 1000
12 | CN1CCN(c2ncc(Sc3ccc(C=O)cc3)c(OCc3ccccc3)n2)CC1 [compound 45, 4-((4-(Benzyloxy)-2-(4-methylpiperazin-1-yl)pyrimidin-5-yl)thio)benzaldehyde] | 200 to 400
13 | COC(=O)c1ccc(Sc2cnc(N3CCN(C)CC3)nc2OCc2ccccc2)cc1 [compound 49, Methyl 4-((4-(benzyloxy)-2-(4-methylpiperazin-1-yl)pyrimidin-5-yl)thio)benzoate] | 200 to 400
14 | C=CC(=O)Nc1ccc(Sc2cnc(N3CCN(C)CC3)nc2OCc2ccccc2)cn1 [compound 56, N-(5-((4-(Benzyloxy)-2-(4-methylpiperazin-1-yl)pyrimidin-5-yl)thio)pyridin-2-yl)acrylamide] | ≥ 1200
15 | COc1ccc(Sc2cnc(N3CCN(C)CC3)nc2OCc2ccccc2)c(N)c1 [compound 62, 2-((4-(Benzyloxy)-2-(4-methylpiperazin-1-yl)pyrimidin-5-yl)thio)-5-methoxyaniline] | 400 to 1000
16 | COc1ncc(Sc2cnc(N3CCN(C)CC3)nc2OCc2ccccc2)cc1N [compound 63, 5-((4-(Benzyloxy)-2-(4-methylpiperazin-1-yl)pyrimidin-5-yl)thio)-2-methoxypyridin-3-amine] | ≥ 1200
17 | CN1CCN(c2ncc(Sc3ccc(C(N)=O)cc3)c(OCc3ccccc3)n2)CC1 [compound 66, 4-((4-(Benzyloxy)-2-(4-methylpiperazin-1-yl)pyrimidin-5-yl)thio)benzamide] | 200 to 400
18 | CN1CCN(c2ncc(Sc3cccc(C(N)=O)c3)c(OCc3ccccc3)n2)CC1 [compound 67, 3-((4-(Benzyloxy)-2-(4-methylpiperazin-1-yl)pyrimidin-5-yl)thio)benzamide] | 200 to 400
19 | Cc1cc(C(N)=O)ccc1Sc1cnc(N2CCN(C)CC2)nc1OCc1ccccc1 [compound 73, 4-((4-(Benzyloxy)-2-(4-methylpiperazin-1-yl)pyrimidin-5-yl)thio)-3-methylbenzamide] | 1000 to 1200

Other lines, results leading:

Row | EC50 [nM] | Compound
20 | < 200 | COc1cccc(COc2nc(N3CC[C@@H](N(C)C)C3)ncc2Sc2ccc(C(N)=O)cc2)c1 [190e, (R)-4-((2-(3-(dimethylamino)pyrrolidin-1-yl)-4-((3-methoxybenzyl)oxy)pyrimidin-5-yl)thio)benzamide]
21 | ≥ 1200 | COc1cccc(COc2nc(N3CCCN(C)CC3)ncc2Sc2ccc(C(N)=O)cc2)c1 [190h]
22 | < 200 | C#CCCCN1CCN(c2ncc(Sc3ccc(C(N)=O)cc3)c(OCc3cccc(OC)c3)n2)CC1 [190k, 4-((4-((3-Methoxybenzyl)oxy)-2-(4-(pent-4-yn-1-yl)piperazin-1-yl)pyrimidin-5-yl)thio)benzamide]
23 | < 200 | C=CCN1CCN(c2ncc(Sc3ccc(C(N)=O)cc3)c(OCc3cccc(OC)c3)n2)CC1 [190o, 4-((2-(4-Allylpiperazin-1-yl)-4-((3-methoxybenzyl)oxy)pyrimidin-5-yl)thio)benzamide]
24 | < 200 | COc1cccc(COc2nc(N3CCN(C4CC4)CC3)ncc2Sc2ccc(C(N)=O)cc2)c1 [190p, 4-((2-(4-Cyclopropylpiperazin-1-yl)-4-((3-methoxybenzyl)oxy)pyrimidin-5-yl)thio) benzamide]
25 | < 200 | COc1cccc(COc2nc(N3CCN(CC4CC4)CC3)ncc2Sc2ccc(C(N)=O)cc2)c1 [190q, 4-((2-(4-(Cyclopropylmethyl)piperazin-1-yl)-4-((3-methoxybenzyl)oxy)pyrimidin-5-yl)thio)benzamide]
26 | 200 to 400 | COc1cccc(COc2nc(N3CCN(C4COC4)CC3)ncc2Sc2ccc(C(N)=O)cc2)c1 [190r, 4-((4-((3-Methoxybenzyl)oxy)-2-(4-(oxetan-3-yl)piperazin-1-yl)pyrimidin-5-yl)thio)benzamide]
27 | < 200 | COc1cccc(COc2nc(N3CCN(Cc4nccs4)CC3)ncc2Sc2ccc(C(N)=O)cc2)c1 [190v, 4-((4-((3-Methoxybenzyl)oxy)-2-(4-(thiazol-2-ylmethyl)piperazin-1-yl)pyrimidin-5-yl)thio)benzamide]
28 | 200 to 400 | COc1ccc(Sc2cnc(N3CCN(C)CC3)nc2OCc2ccccc2)cc1N [compound 11, 5-((4-(Benzyloxy)-2-(4-methylpiperazin-1-yl)pyrimidin-5-yl)thio)-2-methoxyaniline]
29 | 400 to 1000 | CN1CCN(c2ncc(Sc3ccc(C=O)o3)c(OCc3ccccc3)n2)CC1 [compound 29, 5-((4-(Benzyloxy)-2-(4-methylpiperazin-1-yl)pyrimidin-5-yl)thio)furan-2-carbaldehyde]
30 | 400 to 1000 | CC(=O)c1ccc(Sc2cnc(N3CCN(C)CC3)nc2OCc2ccccc2)s1 [compound 30, 1-(5-((4-(Benzyloxy)-2-(4-methylpiperazin-1-yl)pyrimidin-5-yl)thio)thiophen-2-yl)ethanone]
31 | 1000 to 1200 | CC(=O)c1ccc(Sc2cnc(N3CCN(C)CC3)nc2OCc2ccccc2)cc1 [compound 36, 1-(4-((4-(Benzyloxy)-2-(4-methylpiperazin-1-yl)pyrimidin-5-yl)thio)phenyl)ethanone]
32 | 400 to 1000 | CN1CCN(c2ncc(Sc3cccc(C=O)c3)c(OCc3ccccc3)n2)CC1 [compound 43, 3-((4-(Benzyloxy)-2-(4-methylpiperazin-1-yl)pyrimidin-5-yl)thio)benzaldehyde]
33 | 400 to 1000 | CN1CCN(c2ncc(Sc3ccc(C#N)cc3)c(OCc3ccccc3)n2)CC1 [compound 44, 4-((4-(Benzyloxy)-2-(4-methylpiperazin-1-yl)pyrimidin-5-yl)thio)benzonitrile]
34 | 400 to 1000 | CN1CCN(c2ncc(Sc3cccc(C#N)c3)c(OCc3ccccc3)n2)CC1 [compound 47, 3-((4-(Benzyloxy)-2-(4-methylpiperazin-1-yl)pyrimidin-5-yl)thio)benzonitrile]
35 | 400 to 1000 | CN1CCN(c2ncc(Sc3ccc(NC(=O)CN)cc3)c(OCc3ccccc3)n2)CC1 [compound 58, 2-Amino-N-(4-((4-(benzyloxy)-2-(4-methylpiperazin-1-yl)pyrimidin-5-yl)thio)phenyl)acetamide]
36 | 400 to 1000 | CC(Oc1ccc(Sc2cnc(N3CCN(C)CC3)nc2OCc2ccccc2)cc1)C(N)=O (stereo not drawn) [compound 65, 2-(4-((4-(Benzyloxy)-2-(4-methylpiperazin-1-yl)pyrimidin-5-yl)thio)phenoxy)propanamide]
37 | 1000 to 1200 | CN1CCN(c2ncc(Sc3ccc(F)c(C(N)=O)c3)c(OCc3ccccc3)n2)CC1 [compound 68, 5-((4-(Benzyloxy)-2-(4-methylpiperazin-1-yl)pyrimidin-5-yl)thio)-2-fluorobenzamide]
38 | < 200 | CN1CCN(c2ncc(Sc3ccc(C(N)=O)c(C(F)(F)F)c3)c(OCc3ccccc3)n2)CC1 [compound 70, 4-((4-(Benzyloxy)-2-(4-methylpiperazin-1-yl)pyrimidin-5-yl)thio)-2-(trifluoromethyl)benzamide]
39 | 400 to 1000 | Cc1cc(Sc2cnc(N3CCN(C)CC3)nc2OCc2ccccc2)ccc1C(N)=O [compound 74, 4-((4-(Benzyloxy)-2-(4-methylpiperazin-1-yl)pyrimidin-5-yl)thio)-2-methylbenzamide]

From patent US10160729B2, “Hsp70 modulators and methods for making and using the same” (Memorial Sloan Kettering Cancer Center, priority 2014, dated 2018)
